These results are taken from paper PMC4702177, “Discovering new mTOR inhibitors for cancer treatment through virtual screening methods and in vitro assays” (Scientific Reports, 2016).

As a reminder, the inhibition is the share of the control response that was lost under treatment. For orientation: IC50 means the midpoint of a concentration-inhibition curve.

The target in assay [1] is T1, human recombinant mTOR kinase (Homo sapiens, UniProt P42345).
T1 construct: a purified recombinant mTOR fragment (amino acids 1360-2549, CBA104-1KIT from Calbiochem); purchased Calbiochem CBA104-1KIT
The experiment in a line: In vitro mTOR kinase assay (K-LISA ELISA, p70S6K-GST substrate). Format: biochemical. The note with it: for inhibition at 10 µM: triplicate measurements; for IC50: mean ± SD of triplicate measurements. Here is the method:
The mTOR kinase inhibitory activities of the 41 final virtual hits were determined using an ELISA-based activity assays that utilize a p70S6K-GST fusion protein as a specific mTOR substrate (see the Experimental Section for details). For the initial screening, all the activities were measured at a concentration of 10 μM.
mTOR activity was evaluated using a purified recombinant mTOR fragment (amino acids 1360-2549, CBA104-1KIT from Calbiochem). The K-LISA^TM mTOR activity kit is an ELISA-based activity assay for detection of phosphorylation of a p70S6K-GST fusion protein (a specific mTOR substrate) in the presence of ATP. The assay was optimized for use with mTOR as described in the Calbiochem protocol. The assay takes place in 96-well plates and can be divided into two phases: an mTOR kinase reaction phase and phosphorylated substrate detection phase.
In the kinase reaction phase, the following components were mixed in the same well: 5 μL of a solution containing 5 μg/mL mTOR substrate (recombinant p70S6K-GST fusion protein) in Tris-buffered saline (1 L TBS: sodium chloride 8.8 g, Tris Base 2.4 g, HCl 13 mL, Tween-20 10 ml, ddH2O), 5 μL ATP solution containing 20 mM ATP diluted in kinase assay buffer (pH 7.4, 0.01% Tween 20, 1 mM EDTA, 10 mM MgCl2, 1 mM DTT), […] of human recombinant mTOR kinase at the optimal concentration (80 ng/well) diluted in kinase assay buffer, and 5 μL of serial dilutions of inhibitors diluted in DMSO and kinase assay buffer. For each inhibitor concentration, the assay was run in triplicate. The final reaction volume was 100 μL per well, and samples incubated for 30 min at room temperature.
The kinase reaction was stopped by adding 10 μL kinase stop solution to each well. The phosphorylated substrate was detected using Anti-p70S6K-pT389 antibody, followed by detection with HRP-Antibody Conjugate and TMB Substrate. Then, ELISA stop solution was added to each well to stop the reaction, and relative mTOR inhibition activity was determined by reading the absorbance at dual wavelengths of 450/540 nm.
Background: An ELISA detects its analyte on a solid surface through an enzyme-linked reagent.

The subject of the next assay is C6 (Glioma cell). Briefly: In vitro cell proliferation assay. The note with it: data not shown. It is filed as cell-based. On the procedure:
(§1) Most human breast cancer cells and cervical cancer cells become resistant to current chemotherapeutic drugs due to mutation of apoptotic mechanisms. It has been reported that MCF-7 cells are resistant to most of the drugs approved by the US Food and Drug Administration (FDA), including paclitaxel, doxorubicin, 5-fluorouracil, etoposide, and camptothecin[31][32].
(§2) Cell proliferation was measured with an MTS assay (CellTiter 96 Aqueous ONE Solution kit; Promega, Madison, USA). MCF-7, HeLa, MGC-803, C6 and U87 cells in log-phase were seeded (5 × 10^3 cells/well) in 96-well plates for 24 h, and then the medium were replaced with fresh medium containing different concentrations of compounds. […] After incubation for 48 h, the cells were further incubated with 20 μL of MTS for 1–4 h at 37 °C in a humidified incubator with 5% CO2. The absorbance at 490 nm was measured using a mircoplate reader (Model680, Bio-Rad; Hercules, CA, USA). The inhibition rate (%) was calculated as equation (1): […]
(§3) IC50 values were determined from the results of at least three independent tests and calculated from the inhibition curves.

The test system of assay [2] is HeLa (human cervical cancer cell). The experiment in a line: In vitro cell proliferation assay. Format: cell-based. The following applies: data not shown. Here is the method: as §1, §2, §3
The subject of assay [3] is MCF-7 (human breast cancer cell). The experiment in a line: In vitro cell proliferation assay. It is filed as cell-based. The following applies: data not shown. Here is the method:
as §1, §2, §3

Assay [4] deals with MGC-803 (human gastric cancer). Briefly: In vitro cell proliferation assay. The note with it: data not shown. Format: cell-based. Here is the method: as §1, §2, §3
Another assay relates to U87 cells (Glioma cell). Briefly: In vitro cell proliferation assay. It is filed as cell-based. The following applies: data not shown. On the procedure: as §1, §2, §3
The target of the next assay is mTOR kinase. Set-up: method as in PMID 11575159. The note with it: read-out: IC50 (mTOR kinase, reported); cited from earlier work.

“And” between values parts separate entries of the source, which are not always exact repeats. Identical values can stand only once.

T1 sequence (P42345 1360-2549): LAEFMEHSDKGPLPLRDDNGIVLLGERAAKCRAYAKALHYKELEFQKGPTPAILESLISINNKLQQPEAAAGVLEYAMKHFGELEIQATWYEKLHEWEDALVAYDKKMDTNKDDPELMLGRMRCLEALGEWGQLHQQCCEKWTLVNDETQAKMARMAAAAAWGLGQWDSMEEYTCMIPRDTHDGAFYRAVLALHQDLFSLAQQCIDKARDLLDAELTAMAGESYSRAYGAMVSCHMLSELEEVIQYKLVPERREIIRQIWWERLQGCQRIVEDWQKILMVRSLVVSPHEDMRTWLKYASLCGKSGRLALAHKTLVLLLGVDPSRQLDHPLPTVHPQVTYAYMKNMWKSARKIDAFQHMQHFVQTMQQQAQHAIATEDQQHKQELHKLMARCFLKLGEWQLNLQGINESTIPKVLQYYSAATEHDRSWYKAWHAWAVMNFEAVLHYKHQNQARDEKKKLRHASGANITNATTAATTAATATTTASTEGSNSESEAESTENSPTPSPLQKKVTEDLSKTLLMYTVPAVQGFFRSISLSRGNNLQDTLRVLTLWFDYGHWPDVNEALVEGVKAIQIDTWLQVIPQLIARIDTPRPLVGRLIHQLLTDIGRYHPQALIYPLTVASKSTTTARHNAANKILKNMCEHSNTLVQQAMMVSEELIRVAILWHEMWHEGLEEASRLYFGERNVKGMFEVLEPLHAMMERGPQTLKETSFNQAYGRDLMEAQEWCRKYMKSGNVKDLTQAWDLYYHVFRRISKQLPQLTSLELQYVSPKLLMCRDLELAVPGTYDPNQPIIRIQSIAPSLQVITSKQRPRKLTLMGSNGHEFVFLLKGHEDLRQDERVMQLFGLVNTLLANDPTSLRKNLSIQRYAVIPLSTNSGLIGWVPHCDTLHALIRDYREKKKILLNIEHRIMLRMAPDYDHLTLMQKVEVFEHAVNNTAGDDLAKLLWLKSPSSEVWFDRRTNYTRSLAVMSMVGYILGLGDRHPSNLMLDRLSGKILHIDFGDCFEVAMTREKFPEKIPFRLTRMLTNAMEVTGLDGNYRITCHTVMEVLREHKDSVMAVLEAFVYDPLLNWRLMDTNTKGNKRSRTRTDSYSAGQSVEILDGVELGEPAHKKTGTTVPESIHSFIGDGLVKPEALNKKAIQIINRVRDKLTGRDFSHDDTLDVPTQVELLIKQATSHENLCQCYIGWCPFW

`Clc1ccc(-c2nnc3sc(-c4cnccn4)nn23)cc1` [Compound 20]: in assay [1], the inhibition at 10 µM came to 55%; the IC50 was < 10 µM and 9.2 µM. With `O=[N+]([O-])c1c(Nc2ccc3c(c2)OCO3)cc(N2CCOCC2)c2nonc12` [Compound 18], in assay [1], the inhibition at 10 µM was determined as 38% and the IC50 is greater than 50 µM. `O=C(CCl)Nc1ccc(/C=C2\CCCn3c2nc2cc(NC(=O)CCl)ccc2c3=O)cc1` [Compound 36]: in assay [1], the inhibition at 10 µM turned out to be 31% and the half-maximal inhibitory concentration (IC50) came out at 14.9 ± 1.01 µM. In the same order, the values of `c1coc(-c2nnc3sc(-c4cnccn4)nn23)c1` [Compound 21] are 50% and 14.4 ± 2.02 µM. On to `NC(=O)c1nnn(Cc2cc(Cl)c(C(=O)c3ccc(Cl)cc3)c(Cl)c2)c1N` [Compound 33], for which the inhibition at 10 µM in assay [1] is 21%. With `Cc1cc(=O)n2nc(N)c(/N=N/c3ccccc3)c2[nH]1` [Compound 9], the inhibition at 10 µM in assay [1] turned out to be 23%.

Regarding `O=C(NC(=S)Nc1ccc2oc(-c3cccnc3)nc2c1)c1ccco1` [Compound 26], in assay [1], the inhibition at 10 µM turned out to be 33% and the IC50 is greater than 50 µM. In the same order, the values of `COc1cccc(-c2nn3c(N)c(C#N)c(-c4cccnc4)nc3c2C)c1` [Compound 27] are 38% and 28.6 ± 2.65 µM. For the compound `CNc1cccc2c(NC(=S)NC(=O)c3cccc(C(=O)NC(C)=S)c3)cccc12` [Compound 40], the inhibition at 10 µM in assay [1] stood at 91%. The IC50 in assay [1] is < 10 µM and 1.47 µM. Moreover, the anti-proliferative activity entry (with C6 (Glioma cell); in assay [2]; in assay [3]; in assay [4]; in the assay on U87 cells (Glioma cell)) was “do not show anti-proliferative activity” throughout. For `COc1c(-c2ccoc2)oc2ccc(C)cc2c1=O` [Compound 37], in assay [1], the inhibition at 10 µM is 22%.

`COC(=O)c1sc2nc(-c3ccccc3)nc(N3CCOCC3)c2c1C` [Compound 25]: in assay [1], the inhibition at 10 µM came to 36% and the IC50 was greater than 50 µM. `Nc1nc2ncc(-c3n[nH]cc3[N+](=O)[O-])cn2n1` [Compound 12]: the inhibition at 10 µM in assay [1] was 30%. Take `COC[C@H]1OC(=O)c2coc3c2[C@@]1(C)C1=C(C3=O)[C@@H]2CCC(=O)[C@@]2(C)C[C@H]1OC(C)=O` [Wortmanin]: at mTOR kinase, the IC50 is […]. On to `COc1cc(/C=C2/SC(=S)N(C)C2=O)ccc1Oc1nc(N2CCOCC2)nc(N2CCOCC2)n1` [Compound 6], for which, in assay [1], the inhibition at 10 µM came out at 22%.
